Test results from US20120021432A1, “Phosphorylated NF45 Biomarkers, Antibodies And Methods Of Using Same” (ArQule, Inc., priority 2010, published 2012).

Columns and labels:
[1] = system: pNF45 (T388); assay: Effect of ATM and DNA-PK inhibitors on NF45 phosphorylation by β-Lapachone in MIA PaCa-2 cells (Western blot); type: cell-based, human; settings: then β-Lapachone 4 μM 8 hrs in presence of inhibitor
Description: (§1) Immunoprecipitation and Western Blot Analysis: Cell lysate was used for immunoprecipitation using anti-NF90 antibody (#612154, BD Biosciences) or IgG as negative control. Samples then were separated into two equal potions: one blotted with anti-pNF45(T388)(#438) and another for anti-NF45 (K-22) (sc-133817, Santa Cruz Biotechnology). Other antibodies used in this study are pATM(S1981)(# 200-301-400, Rockland), DNA-PKcs (MA-370-P0, Thermo Scientific), ATM(2C1) (GTX70103, GeneTex), DNA-PK (S2506) (ab18192, Abcam), DNA-PK (T2609) (ab18356, Abcam), pCHK2(T68) (#2661, CST), b-actin (#5441, Sigma), g-H2AX (A300-081A, Bethyl).
(§2) β-Lapachone-induced phosphorylation of NF45 is ATM- and DNA-PK-dependent: MIA PaCa-2 cells were pretreated with or without ATM inhibitor KU55933 (10 μM), or DNA-PK inhibitor NU7026 (20 μM), for 1 hr and then treated with β-Lapachone (4 μM) (“Agent A”) for 8 hrs in the presence of inhibitors. Western blot analysis was performed using specific antibodies.

[2] = system: pNF45 (T388); assay: Western blot analysis for pNF45 (T388) in MIA PaCa-2 cells; type: cell-based, human; settings: for time course of NF45 phosphorylation / induction of NF45 phosphorylation, pNF45 (T388): MIA Paca-2 cells; for time course of NF45 phosphorylation: up to 24 hrs; for induction of NF45 phosphorylation, pNF45 (T388): various times
Description: Cell culture and chemicals: MIA PaCa-2 cells were maintained in DMEM medium supplemented with 10% FBS. β-Lapachone and (S)-1′-(3-(4-(tert-butyl)phenoxy)-2-hydroxypropyl)-2H-spiro[naphtho[1,2-b][1,4]oxathiine-3,4′-piperidine]-5,6-dione were synthesized by ArQule, Inc. Doxorubicin, cisplatin, camptohethcin and NU7026 (DNA-PK inhibitor) were purchased from Sigma. KU55933 (ATM inhibitor) was purchased from EMD Chemicals.
Antibody generation: Anti-pNF45 (T388) antibody was generated by Covance (Norwood, Mass.). Briefly, a peptide corresponding to amino acids 383 to 390 (EESME-T-QE) (SEQ ID NO: 2) of NF45 was phosphorylated at threonine 388 in vitro and then conjugated with KHL. Polyclonal antibody was produced from rabbit and passed through affinity column with unphosphorylated peptide and then purified through the column with phosphorylated peptide. Two batches of antibody were obtained: #438 and #439. All the experiments were carried out using #438. Monoclonal antibody are generated by utilizing SEQ ID NO:2 and the hybridoma method known in the art and described herein.
as §1
Knockdown of NF45: Cells were transfected with NF45 On-target plus SMART pool (L-017599-00-0005, Thermo Fisher) or On-Target plus Control siRNA (200 nM, #D-001810-0X, Thermo Fisher) using Oligofectamine (#12252-011, Invitrogen). Cells were used for further examination after 48 hr post transfection.
Threonine Phosphorylation of pNF45 in MIA PaCa-2 Cells is Responsive to β-Lapachone: MIA PaCa-2 cells were treated with or without β-Lapachone (4 μM) (“Agent A”) for 8 hrs and cell lysate was subjected to western blot analysis for the detection of pNF45(T388). […] Samples were then separated into two portions: one for detection of pNF45 (T388) and another for detection of total NF45. C. Cells were transfected with NF45 siRNA or control siRNA and then treated with or without β-Lapachone (4 μM) for 8 hrs.
Time- and concentration-dependent pNF45 (T388) in response to β-Lapachone in MIA PaCa-2 cells: MIA PaCa-2 cells were treated with β-Lapachone (4 μM) (“Agent A”) for various times (A), or for 2 hrs at various concentrations of β-Lapachone (B). Western blot analysis was performed for the detection of pNF45 (T388) and NF45. […] Early induction of pNF45 (T388) was observed within 1 hr and reached peak level between 4 to 8 hrs.
Effect of DNA damage agents on phosphorylation of NF45: To determine whether other DNA damage agents are able to regulate NF45, we treated MIA Paca-2 cells with or without doxorubicin (1 μM), cisplatin (10 μM) or camptothecin (10 μM) for various times. pNF45 (T388) was examined by western blot analysis.

[3] = system: Human breast and ovary carcinoma; settings: cited from earlier work
[4] = system: DNA-PK; assay: Western blot, activation of DNA-PK in β-Lapachone treated cells; type: cell-based, human; settings: MIA PaCa-2 cells, coincides with induction of pNF45 (T388)
Description: as §1, §2

[5] = system: human prostate and promyelocytic leukemia cancer cell lines; settings: cited from earlier work
[6] = system: DNA topoisomerase II; settings: cited from earlier work
[7] = system: g-H2AX; assay: g-H2AX elevation in treated cells; type: cell-based
Description: as §1

[8] = system: ATM; assay: Western blot, activation of ATM in β-Lapachone treated cells; type: cell-based, human; settings: MIA PaCa-2 cells, coincides with induction of pNF45 (T388)
Description: as §1, §2

[9] = system: human ovarian cancer, human prostate cancer, human breast cancer, human multiple myeloma; settings: single agent, xenotransplant mouse models; cited from earlier work
[10] = cited from earlier work
[11] = system: CHK2; assay: CHK2 phosphorylation in treated cells; type: cell-based
Description: as §1

[12] = system: pNF45 (T388); assay: Immunofluorescence staining of pNF45 (T388) in MIA PaCa-2 cells; type: cell-based, human
Procedure: Immunofluorescent Staining: Cells were seeded in 8-well chamber slides and treated with or without β-Lapachone for various time periods and then fixed with 4% paraformaldhyde. pNF45 was detected using anti-pNF45(T388) antibody, and NF45 using anti-NF45 (K-22) antibody. Slides were mounted using Vectashield Mounting Medium with DAPI (#H-1200, Vector Laboratories) and images were obtained using Zeiss fluorescence microscope.
Immunofluorescence staining pNF45 (T388) in response to β-Lapachone: MIA PaCa-2 cells were plated in 8-well chamber slides and treated with β-Lapachone (4 μM) (“Agent A”) for various times. Cells were fixed and stained for either pNF45 (A) or NF45 (B).

[13] = system: cancer cells from a variety of tissues; normal cells from these tissues; settings: cited from earlier work

With O=c1cc(-c2cccc3c2Sc2ccccc2S3)oc(N2CCOCC2)c1 [KU55933] the “effect of ATM inhibitor on β-Lapachone-induced phosphorylation of NF45” value ([1]; inhibitor 10 μM pretreated 1 hr) was “phosphorylation of NF45 induced by β-Lapachone is ATM and DNA-PK dependent”.

In the case of O=c1cc(N2CCOCC2)oc2c1ccc1ccccc12 [NU7026], the “effect of DNA-PK inhibitor on β-Lapachone-induced phosphorylation of NF45” value ([1]; inhibitor 20 μM pretreated 1 hr) is reported as “phosphorylation of NF45 induced by β-Lapachone is ATM and DNA-PK dependent”.

For CC[C@@]1(O)C(=O)OCc2c1cc1n(c2=O)Cc2cc3ccccc3nc2-1 [camptothecin], the “time course of NF45 phosphorylation” value ([2]; 10 μM) was “steadily increased up to 24 hrs” and the “induction of NF45 phosphorylation, pNF45 (T388)” value ([2]; 10 μM) was “induced NF45 phosphorylation”.

For N.N.[Cl][Pt][Cl] [cisplatin], the “induction of NF45 phosphorylation, pNF45 (T388)” value ([2]; 10 μM) was “not cisplatin induced NF45 phosphorylation”.

In the case of COc1cccc2c1C(=O)c1c(O)c3c(c(O)c1C2=O)C[C@@](O)(C(=O)CO)C[C@@H]3O[C@H]1C[C@H](N)[C@H](O)[C@H](C)O1 [doxorubicin], the “time course of NF45 phosphorylation” value ([2]; 1 μM) is reported as “steadily increased up to 24 hrs” and the “induction of NF45 phosphorylation, pNF45 (T388)” value ([2]; 1 μM) is reported as “induced NF45 phosphorylation”.

For CC1(C)CCC2=C(O1)c1ccccc1C(=O)C2=O [β-Lapachone, 3,4-dihydro-2,2-dimethyl-2H-naphtho[1,2-b]pyran-5,6-dione], the cytotoxic effect [3] is given as “showed sensitivity of the cytotoxic effect of β-Lapachone without signs of apoptosis”, the “activation of DNA-PK” value [4] is given as “activation” and the “induction of cell death” value [5] is given as “induces cell death with characteristics of apoptosis”. The “inhibition of DNA topoisomerase II” value [6] was “inhibits DNA topoisomerase II”, the g-H2AX level [7] was “g-H2AX elevation” and the “activation of ATM” value [8] was “activation”. The “number of tumors, tumor size, survival time” value [9] was “decrease the number of tumors, reduce tumor size, or increase the survival time, or a combination of these”, the water solubility [10] was “non-water soluble” and the CHK2 phosphorylation [11] was “CHK2 phosphorylation”. For the same molecule, the “time of early induction of pNF45 (T388)” value ([2]; MIA PaCa-2 cells, 4 μM) was no more than 1 hr, the “time and concentration dependence of pNF45 (T388) induction” value ([2]; MIA PaCa-2 cells, 4 μM for various times, or 2 hrs at various concentrations) was “time- and concentration-dependent manner” and the “induction of pNF45 (T388)” value ([2]; MIA PaCa-2 cells, 4 μM, 8 hrs) was “induced pNF45 (T388)”. For the same molecule, the “cellular location of induced pNF45 (T388)” value ([12]; MIA PaCa-2 cells, 4 μM) was “primarily located in nuclei”, the “time of induction of pNF45 (T388), immunofluorescence” value ([12]; MIA PaCa-2 cells, 4 μM, various times) was no more than 2 hrs and the “pNF45 (T388) levels, immunofluorescence staining” value ([12]; β-Lapachone treated cells, pNF45 (T388) antibody) was “significant increase”. For the same molecule, the “cell death in cancer cells versus normal cells” value [13] was “induces cell death in cancer cells from a variety of tissues without causing death of normal cells from these tissues”.
